This is an account of results in EP2062885A1, “Acid addition salts of imatinib and formulations comprising the same” (priority 2007, dated 2009).

Counter-ions that a name gives are not always drawn. Like-named read-outs stand apart in the source and are kept apart here.

One data set concerns Rat. The settings on record: cited from earlier work.
In a further data set the test system is Rabbit. The settings on record: cited from earlier work.
Another data set has as its system Mouse. The settings on record: cited from earlier work.
Data set [1] is described as follows: Non-hygroscopicity test (stability chambers, water content by Karl Fischer method). The format is physicochemical. The settings on record: for Final Moisture Content After 24hrs / Initial Moisture Content: Karl Fischer; for hygroscopic properties: assessment in words, comparable to α and β forms of imatinib mesylate; for Initial Moisture Content: before storage in stability chamber.
Description: The water contents were measured by a well known method, namely Karl Fischer method for determining water quantities.

For the next data set, the system named is Quail. The settings on record: Oral; cited from earlier work.

Consider `N[C@@H](CC(=O)O)C(=O)O` [Aspartic acid], for which the LD50 (usually the dose at which mortality reaches 50%) with Rat (Oral, Rat) is reported as 5000 mg/kg; in the data set on Rabbit (Skin), 5000 mg/kg.
`CC1(C)C2CCC1(CS(=O)(=O)O)C(=O)C2` (stereo not drawn) [Camphor sulfonic acid]: in the data set on Mouse (Subcutaneous, Mouse), the LD50 was 2502 mg/kg.
For `CCCCCCCCCC(=O)O` [Capric acid], the median lethal dose (LD50) is reported as 3730 mg/kg in the data set with Rat (Oral, Rat) and 1770 mg/kg in the data set with Rabbit (Oral).
Turning to `Cc1ccc(NC(=O)c2ccc(CN3CCN(C)CC3)cc2)cc1Nc1nccc(-c2cccnc2)n1.O=C(O)c1cc(=O)[nH]c(=O)[nH]1` [Imatinib Orotate, 4-[(4-Methyl-1-piperazinyl)methyl]-N-[4-methyl-3-[[4-(3-pyridinyl)-2-pyrimidinyl]amino]phenyl]-benzamide, orotate], the “Final Moisture Content After 24hrs” value in data set [1] (25°C at humidity of 60%) is on record as 0.7%. Also, the “Final Moisture Content After 24hrs” value in data set [1] (40 °C at humidity of 75%) worked out at 0.7%. Further, in data set [1], the hygroscopic properties result is “considerably low hygroscopic” and the “Initial Moisture Content” value is reported as 0.4%.
In the case of `Cc1ccc(NC(=O)c2ccc(CN3CCN(C)CC3)cc2)cc1Nc1nccc(-c2cccnc2)n1` [Imatinib Oxalate, 4-[(4-Methyl-1-piperazinyl)methyl]-N-[4-methyl-3-[[4-(3-pyridinyl) -2-pyrimidinyl]amino]phenyl]-benzamide, oxalate], the “Final Moisture Content After 24hrs” value amounted to 3.4% in data set [1] (25°C at humidity of 60%) and 3.6% in data set [1] (40 °C at humidity of 75%). For the same compound, the hygroscopic properties entry in data set [1] is listed as “considerably low hygroscopic”. Moreover, the “Initial Moisture Content” value in data set [1] is listed as 1.6%.
As to `CCCCCCCCCCCC(=O)O` [Lauric acid], the LD50 in the data set on Rat (Oral, Rat) is reported as 12000 mg/kg; with Mouse (mouse, in vivo, iv), 131 mg/kg.
Take `CS(=O)(=O)O` [Methanesulfonic acid, reference compound]: the LD50 in the data set on Quail was 1000 mg/kg; in the data set with Rat (rat, in vivo, po), 200 mg/kg.
In the case of `CCCCCCCC/C=C\CCCCCCCC(=O)O` [Oleic acid], the LD50 is 74000 mg/kg with Rat (Oral, Rat); 282 mg/kg in the data set with Mouse (Intraperitoneal, Mouse); 230 mg/kg in the data set with Mouse (Intravenous, Mouse).
Regarding `O=C(O)c1cc(=O)[nH]c(=O)[nH]1` [Orotic acid], the LD50 in the data set with Mouse (mouse, in vivo, ip) is on record as 841 mg/kg; in the data set on Mouse (mouse, in vivo, iv), 770 mg/kg; in the data set on Mouse (mouse, in vivo, po) it was 2000 mg/kg.
In the case of `O=C(O)Cc1ccccc1` [Phenyl acetic acid], the LD50 with Rat (Intraperitoneal, Rat) was 1600 mg/kg; with Rat (Oral, Rat), 2250 mg/kg.
Consider `Cc1ccc(S(=O)(=O)O)cc1` [p-Toluene sulfonic acid], for which the LD50 in the data set with Rat (Oral, Rat) was 2480 mg/kg; with Mouse (Oral, Mouse) it was 400 mg/kg.
